Assay results taken from PubChem BioAssay (NCI).
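Where inhibition never reached the appropriate level, the endpoint shown equals the highest concentration tested. Otherwise, values were interpolated linearly from a five-concentration, 48-hour dose response in 96-well plates. TGI: concentration producing complete growth inhibition.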

Experiments:
Assay in all cases: NCI tumour cell line growth inhibition, 48 h
[1] = test system: DLD-1 colon
[2] = test system: DMS 114 small cell lung
[3] = test system: DMS 273 small cell lung
[4] = test system: KM20L2 colon
[5] = test system: LXFL 529 NSCLC
[6] = test system: M19-MEL melanoma
[7] = test system: SNB-78 CNS
[8] = test system: HOP-18 NSCLC
[9] = test system: P388 leukemia
[10] = test system: SN12K1 renal

Row | Structure (SMILES) | TGI [1] [µM] | TGI [2] [µM] | TGI [3] [µM] | TGI [4] [µM] | TGI [5] [µM] | TGI [6] [µM] | TGI [7] [µM] | TGI [8] [µM] | TGI [9] [µM] | TGI [10] [µM]
1 | CC1(Cl)CC2C(CC1Sc1nnnn1-c1ccccc1)C2(C)C (stereo not given) | > 100 | > 100 | > 100 | > 100 | > 100 | > 100 | > 100 |  |  | 
2 | NCCCCNCCCNC(=O)c1nc(-c2csc(CCN)n2)sc1Cl | > 100 | > 100 | > 100 | > 100 | 45.6 | > 100 | > 100 |  |  | 
3 | CC(=O)Oc1ccc(C2COc3cc(OC(C)=O)c(OC(C)=O)cc3C2)cc1 (stereo not given) | 38 | 17.1 | 61.6 | 75.5 |  | 33.2 | 80.2 | 46.8 | 37.1 | 35.9
4 | C#CCn1c(=O)c(C#N)c(O)c2cc3ccccc3nc21 | > 100 | > 100 | > 100 |  |  | > 100 | > 100 | > 100 | > 100 | > 100
5 | COc1cc2c(cc1OC)-c1c3c(cc4c1[C@@H](C2)N(C)CC4)OCO3 | 49.5 | 24.8 | 14.5 | 31.9 |  | 24.1 | 43.9 | 52 | 27.1 | 22.3
